Reference: patent publication EP4818158A1, “BIARYL COMPOUND” (Kissei Pharmaceutical Co., Ltd., priority 2023, dated 2025)

Biological target: T1, human TSHR (Homo sapiens, UniProt P16473)
T1 construct: expressed in transfected cells
Experiment: Antagonist activity using TSH-induced cAMP generation in human TSHR-stably expressing CHO cells
Assay type: cell-based
Details: human TSH 50 ng/mL
Method: Measurement of antagonist activity using TSH-induced cAMP generation in human TSHR-stably expressing CHO cells as an indicator
The gene sequence (reference number: NM_000369.2) of a human TSHR was inserted into multiple cloning sites of pcDNA3.1 (+). Prepared plasmid vectors were introduced into CHO cells using a lipofection method, and human TSHR-stably expressing CHO cells were established. Obtained cells were seeded in a 96-well poly-D-lysine-coated plate at 5 × 10^4 cells/well and cultured in an F12 culture medium containing 10%FBS, 400 µg/mL of G418, 50 U/mL of penicillin, and 50 µg/mL of streptomycin under conditions of 37°C and 5% CO2 for one day. After the culture medium was removed, the cells were washed twice with 100 µL of an assay buffer solution (Hanks' Balanced Salt Solution containing 20 mM HEPES and 1 mM IBMX) per well. 30 µL of a test compound-containing assay buffer solution was added to the well and incubated at room temperature for 15 minutes. Next, 30 µL of an assay buffer solution containing human TSH (final concentration: 50 ng/mL, R&D Systems, Inc.) was added thereto and incubated at 37°C for one hour. A supernatant was removed, a Lysis and Detection Buffer 2(Cisbio) was added thereto, and the mixture was incubated at room temperature for one hour to prepare a cell lysate. According to the instruction manual of a cAMP Gs HiRange kit (Cisbio), the cell lysate, d2-labeled cAMP, and anti-cAMP Europium Cryptate labeled antibodies (Cisbio) were reacted together in a 384-well white microplate. Next, fluorescence intensity ratios (measurement wavelengths: 665 nm/620 nm) were measured using a multi-plate reader (PHERAstar FSX, BMG LABTECH, Japan). The fluorescence intensity ratio of each sample was converted to a cAMP content using a standard curve. The cAMP content was converted as a percentage of the control value to calculate a cAMP generation rate. The cAMP generation rates were plotted against the test compound concentrations using Prism (Graph Pad Software Inc.) to calculate IC50 values. The IC50's of the individual test compounds are shown in the above tables. In the tables, IC50 < 0.3 µM was denoted as A, and 0.3 µM ≤ IC50 < 30 µM was denoted as B. Cases where the IC50 values were not calculated for test compounds from which activity was recognized are denoted as C.

T1 sequence (P16473 21-764): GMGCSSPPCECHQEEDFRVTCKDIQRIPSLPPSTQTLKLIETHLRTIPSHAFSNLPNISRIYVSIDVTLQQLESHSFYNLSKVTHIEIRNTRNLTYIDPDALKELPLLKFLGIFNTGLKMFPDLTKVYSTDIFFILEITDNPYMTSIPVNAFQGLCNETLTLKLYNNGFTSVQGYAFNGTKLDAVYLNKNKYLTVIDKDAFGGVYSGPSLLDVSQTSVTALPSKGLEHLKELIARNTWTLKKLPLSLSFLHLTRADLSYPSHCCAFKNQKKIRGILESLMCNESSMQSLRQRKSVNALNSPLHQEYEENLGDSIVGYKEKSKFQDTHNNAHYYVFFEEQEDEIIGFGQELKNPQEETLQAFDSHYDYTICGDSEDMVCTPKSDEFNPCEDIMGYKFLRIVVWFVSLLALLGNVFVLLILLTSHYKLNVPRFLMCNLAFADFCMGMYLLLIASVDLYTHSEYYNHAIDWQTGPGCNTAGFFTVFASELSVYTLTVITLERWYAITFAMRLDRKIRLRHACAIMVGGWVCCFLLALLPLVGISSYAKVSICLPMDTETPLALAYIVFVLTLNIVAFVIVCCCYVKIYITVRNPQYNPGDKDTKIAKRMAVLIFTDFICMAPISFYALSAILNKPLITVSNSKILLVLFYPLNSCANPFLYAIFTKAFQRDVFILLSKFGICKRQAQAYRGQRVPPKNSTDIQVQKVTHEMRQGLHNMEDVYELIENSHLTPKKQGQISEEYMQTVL

Row | IC50 | Structure (SMILES)
1 | 300 to 30000 nM | CC(C)(C)OC(=O)Nc1ccc(-c2cccnc2CNC(N)=O)c(CC2CC2)c1F [Example F-9, tert-Butyl (3-(cyclopropylmethyl)-2-fluoro-4-(2-(ureidomethyl)pyridin-3-yl)phenyl)carbamate]
2 | 300 to 30000 nM | NC(=O)NCc1ncccc1-c1ccc(NC(=O)N2CCCC2)c(F)c1Cc1ccccc1F [Example G-6]
3 | < 300 nM | CC(C)(C)OC(=O)Nc1ccc(-c2ccnnc2CCC(N)=O)c(Oc2ccccc2F)c1F [Example D-3, tert-Butyl (4-(3-(3-amino-3-oxopropyl)pyridazin-4-yl)-2-fluoro-3-(2-fluorophenoxy)phenyl)carbamate]
4 | < 300 nM | CC(C)(C)OC(=O)Nc1ccc(-c2cccnc2CNC(N)=O)c(Oc2ccccc2F)c1F [Example B-2, tert-Butyl (2-fluoro-3-(2-fluorophenoxy)-4-(2-(ureidomethyl)pyridin-3-yl)phenyl)carbamate]
5 | < 300 nM | NC(=O)NCc1ncccc1-c1ccc(NC(=O)OCC2(C(F)F)CC2)c(F)c1Cc1ccccc1F [Example A-34]
6 | < 300 nM | C[C@H](OC(=O)Nc1ccc(-c2cccnc2CNC(N)=O)c(Cc2ccccc2F)c1F)C(F)(F)F [Example A-23]
7 | < 300 nM | NC(=O)NCc1ncccc1-c1ccc(NC(=O)OC2CC(F)(F)C2)c(F)c1Cc1ccccc1F [Example A-6]
8 | < 300 nM | C[C@H](OC(=O)Nc1ccc(-c2cccnc2CCC(N)=O)c(C(=O)c2ccccc2F)c1F)C1CC1 [Example E-5, (S)-1-Cyclopropylethyl (4-(2-(3-amino-3-oxopropyl)pyridin-3-yl)-2-fluoro-3-(2-fluorobenzoyl)phenyl)carbamate]
9 | < 300 nM | NC(=O)NCc1ncccc1-c1ccc(NC(=O)OC[C@H]2C[C@@H]2F)c(F)c1Cc1ccccc1F (relative stereo) [Example A-32]
10 | < 300 nM | NC(=O)NCc1ncccc1-c1ccc(NC(=O)OCc2ccccc2F)c(F)c1Cc1ccccc1F [Example A-36]
11 | 300 to 30000 nM | CC(C)(C)OC(=O)Nc1ccc(-c2cccnc2CNC(N)=O)c(Cc2ccccc2C#N)c1F [Example A-2, tert-Butyl (3-(2-cyanobenzyl)-2-fluoro-4-(2-(ureidomethyl)pyridin-3-yl)phenyl)carbamate]
12 | < 300 nM | NC(=O)NCc1ncccc1-c1ccc(NC(=O)OCC2CC2)c(F)c1Cc1ccccc1F [Example A-31, Cyclopropylmethyl (2-fluoro-3-(2-fluorobenzyl)-4-(2-(ureidomethyl)pyridin-3-yl)phenyl)carbamate]
13 | < 300 nM | Cc1c(NC(=O)OC(C)(C)C)ccc(-c2cccnc2CNC(N)=O)c1Cc1ccccc1F [Example A-13, tert-Butyl (3-(2-fluorobenzyl)-2-methyl-4-(2-(ureidomethyl)pyridin-3-yl)phenyl)carbamate]
14 | 300 to 30000 nM | NC(=O)NCc1ncccc1-c1ccc(NC(=O)OC2CCOC2)c(F)c1Cc1ccccc1F (stereo not shown) [Example A-28]
15 | 300 to 30000 nM | CC(C)(C)OC(=O)Nc1ccc(-c2ccnnc2CNC(N)=O)c(Oc2ccccc2F)c1F [Example D-1, tert-Butyl (2-fluoro-3-(2-fluorophenoxy)-4-(3-(ureidomethyl)pyridazin-4-yl)phenyl)carbamate]
16 | 300 to 30000 nM | N#Cc1ccccc1Cc1c(-c2cccnc2CNC(N)=O)ccc(NC(=O)OC2CC3CCC2CC3)c1F (stereo not shown) [Example A-38, Bicyclo[2.2.2]octan-2-yl (3-(2-cyanobenzyl)-2-fluoro-4-(2-(ureidomethyl)pyridin-3-yl)phenyl)carbamate]
17 | 300 to 30000 nM | CC(C)(C)OC(=O)Nc1ccc(-c2cccnc2CNC(N)=O)c(Cc2cccc(F)c2)c1F [Example A-15]
18 | < 300 nM | NC(=O)NCc1ncccc1-c1ccc(NC(=O)C2CC(F)(F)C2)c(F)c1Cc1ccccc1F [Example G-4, 3,3-Difluoro-N-(2-fluoro-3-(2-fluorobenzyl)-4-(2-(ureidomethyl)pyridin-3-yl)phenyl)cyclobutane-1-carboxamide]
19 | 300 to 30000 nM | CC(C)(C)OC(=O)Nc1ccc(-c2cccnc2CNC(N)=O)c(CN2CCCC(F)(F)C2)c1F [Example F-6, tert-Butyl (3-((3,3-difluoropiperidin-1-yl)methyl)-2-fluoro-4-(2-(ureidomethyl)pyridin-3-yl)phenyl)carbamate]
20 | < 300 nM | CC1(OC(=O)Nc2ccc(-c3cccnc3CNC(N)=O)c(Cc3ccccc3F)c2F)CC1 [Example A-4, 1-Methylcyclopropyl (2-fluoro-3-(2-fluorobenzyl)-4-(2-(ureidomethyl)pyridin-3-yl)phenyl)carbamate]
21 | < 300 nM | CC(C)(C)OC(=O)Nc1ccc(-c2cccnc2CNC(N)=O)c(Cc2ccc(F)cc2)c1F [Example A-16]
22 | > 30000 nM | C[C@H]1CN(Cc2c(-c3cccnc3CNC(N)=O)ccc(NC(=O)OC(C)(C)C)c2F)CCO1 [Example F-5, tert-Butyl (S)-(2-fluoro-3-((2-methylmorpholino)methyl)-4-(2-(ureidomethyl)pyridin-3-yl)phenyl)carbamate]
23 | < 300 nM | CC(C)(C#N)COC(=O)Nc1ccc(-c2cccnc2CNC(N)=O)c(Cc2ccccc2F)c1F [Example A-7]
24 | 300 to 30000 nM | NC(=O)NCc1ncccc1-c1ccc(NC(=O)C2CCCO2)c(F)c1Cc1ccccc1F (stereo not shown) [Example G-5]
25 | < 300 nM | C[C@H](OC(=O)Nc1ccc(-c2cccnc2CNC(N)=O)c(Oc2ccccc2F)c1F)C(F)(F)F [Example B-3, (S)-1,1,1-Trifluoropropan-2-yl (2-fluoro-3-(2-fluorophenoxy)-4-(2-(ureidomethyl)pyridin-3-yl)phenyl)carbamate]
26 | 300 to 30000 nM | CC(C)(C)OC(=O)Nc1ccc(-c2cccnc2CNC(N)=O)c(Cc2ccccc2OCc2ccccc2)c1F [Example A-18, tert-Butyl (3-(2-(benzyloxy)benzyl)-2-fluoro-4-(2-(ureidomethyl)pyridin-3-yl)phenyl)carbamate]
27 | < 300 nM | NC(=O)NCc1ncccc1-c1ccc(NC(=O)OC2CCC(F)(F)C2)c(F)c1Cc1ccccc1F (stereo not shown) [Example A-27, 3,3-Difluorocyclopentyl (2-fluoro-3-(2-fluorobenzyl)-4-(2-(ureidomethyl)pyridin-3-yl)phenyl)carbamate]
28 | 300 to 30000 nM | CC(c1ccccc1)c1cc(NC(=O)OC(C)(C)C)ccc1-c1cccnc1/C=C/C(N)=O (stereo not shown) [Example A-11, tert-Butyl (E)-(4-(2-(3-amino-3-oxopropan-1-en-1-yl)pyridin-3-yl)-3-(1-phenylethyl)phenyl)carbamate]
29 | < 300 nM | C[C@@H](OC(=O)Nc1ccc(-c2cccnc2CCC(N)=O)c(Cc2ncccc2F)c1F)C1CC1 [Example F-3, (R)-1-Cyclopropylethyl (4-(2-(3-amino-3-oxopropyl)pyridin-3-yl)-2-fluoro-3-((3-fluoropyridin-2-yl)methyl)phenyl)carbamate]
30 | < 300 nM | CC(C)(C)OC(=O)Nc1ccc(-c2cccnc2CCC(N)=O)c(C(=O)c2ccccc2F)c1F [Example E-3, tert-Butyl (4-(2-(3-amino-3-oxopropyl)pyridin-3-yl)-2-fluoro-3-(2-fluorobenzoyl)phenyl)carbamate]

Row | Structure (SMILES) | IC50
31 | NC(=O)NCc1ncccc1-c1ccc(NC(=O)OC2CN3CCC2CC3)c(F)c1Cc1ccccc1F (stereo not shown) [Example A-29, (2-Fluoro-3-(2-fluorobenzyl)-4-(2-(ureidomethyl)pyridine-3-yl)phenyl)carbamate quinuclidine-3-yl] | 300 to 30000 nM
